In PubChem BioAssay (NCI):
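Following 48 hours of exposure in 96-well plates, responses at five concentrations were used to interpolate endpoints linearly. TGI: total growth inhibition.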

Columns and labels:
Test in all cases: NCI anticancer screen, dose series, 48 h
786-0 renal = test system: 786-0 renal
A498 renal = test system: A498 renal
A549 NSCLC = test system: A549 NSCLC
ACHN renal = test system: ACHN renal
CAKI-1 renal = test system: CAKI-1 renal
CCRF-CEM leukemia = test system: CCRF-CEM leukemia
COLO 205 colon = test system: COLO 205 colon
DLD-1 colon = test system: DLD-1 colon
DMS 114 small cell lung = test system: DMS 114 small cell lung
DMS 273 small cell lung = test system: DMS 273 small cell lung
EKVX NSCLC = test system: EKVX NSCLC
HCC-2998 colon = test system: HCC-2998 colon
HCT-116 colon = test system: HCT-116 colon
HCT-15 colon = test system: HCT-15 colon
HL-60(TB) leukemia = test system: HL-60(TB) leukemia
HOP-18 NSCLC = test system: HOP-18 NSCLC
HOP-62 NSCLC = test system: HOP-62 NSCLC
HOP-92 NSCLC = test system: HOP-92 NSCLC
HT29 colon = test system: HT29 colon
IGROV1 ovarian = test system: IGROV1 ovarian
K-562 leukemia = test system: K-562 leukemia
KM12 colon = test system: KM12 colon
KM20L2 colon = test system: KM20L2 colon
LOX IMVI melanoma = test system: LOX IMVI melanoma
M14 melanoma = test system: M14 melanoma
M19-MEL melanoma = test system: M19-MEL melanoma
MALME-3M melanoma = test system: MALME-3M melanoma
MOLT-4 leukemia = test system: MOLT-4 leukemia
NCI-H226 lung = test system: NCI-H226 lung
NCI-H23 lung = test system: NCI-H23 lung
NCI-H460 lung = test system: NCI-H460 lung
NCI-H522 lung = test system: NCI-H522 lung
OVCAR-3 ovarian = test system: OVCAR-3 ovarian
OVCAR-4 ovarian = test system: OVCAR-4 ovarian
OVCAR-5 ovarian = test system: OVCAR-5 ovarian
OVCAR-8 ovarian = test system: OVCAR-8 ovarian
RPMI-8226 leukemia = test system: RPMI-8226 leukemia
SF-268 CNS = test system: SF-268 CNS
SF-295 CNS = test system: SF-295 CNS
SF-539 CNS = test system: SF-539 CNS
SK-MEL-2 melanoma = test system: SK-MEL-2 melanoma
SK-MEL-28 melanoma = test system: SK-MEL-28 melanoma
SK-MEL-5 melanoma = test system: SK-MEL-5 melanoma
SK-OV-3 ovarian = test system: SK-OV-3 ovarian
SN12C renal = test system: SN12C renal
SNB-19 CNS = test system: SNB-19 CNS
SNB-75 CNS = test system: SNB-75 CNS
SNB-78 CNS = test system: SNB-78 CNS
SR leukemia = test system: SR leukemia
SW-620 colon = test system: SW-620 colon
TK-10 renal = test system: TK-10 renal
U251 CNS = test system: U251 CNS
UACC-257 melanoma = test system: UACC-257 melanoma
UACC-62 melanoma = test system: UACC-62 melanoma
UO-31 renal = test system: UO-31 renal
XF 498 CNS = test system: XF 498 CNS

Measured: TGI

COC(=O)c1c2cccccc-2c(Cc2c3cccccc-3c(C(=O)OC)c2O)c1O
> 100 µM: 786-0 renal | A498 renal | A549 NSCLC | ACHN renal | CAKI-1 renal | CCRF-CEM leukemia | COLO 205 colon | DLD-1 colon | DMS 114 small cell lung | DMS 273 small cell lung | EKVX NSCLC | HCC-2998 colon | HCT-116 colon | HCT-15 colon | HL-60(TB) leukemia | HOP-18 NSCLC | HOP-62 NSCLC | HOP-92 NSCLC | HT29 colon | IGROV1 ovarian | K-562 leukemia | KM12 colon | KM20L2 colon | LOX IMVI melanoma | M14 melanoma | M19-MEL melanoma | MALME-3M melanoma | MOLT-4 leukemia | NCI-H226 lung | NCI-H23 lung | NCI-H460 lung | NCI-H522 lung | OVCAR-3 ovarian | OVCAR-4 ovarian | OVCAR-5 ovarian | OVCAR-8 ovarian | RPMI-8226 leukemia | SF-268 CNS | SF-295 CNS | SF-539 CNS | SK-MEL-2 melanoma | SK-MEL-28 melanoma | SK-MEL-5 melanoma | SK-OV-3 ovarian | SN12C renal | SNB-19 CNS | SNB-75 CNS | SNB-78 CNS | SR leukemia | SW-620 colon | TK-10 renal | U251 CNS | UACC-257 melanoma | UACC-62 melanoma | UO-31 renal | XF 498 CNS
